According to PubChem BioAssay AID1259407 (Chemical Carcinogenesis Research Information System (CCRIS), 2018):
Calls of active or inactive are those of the source. How the calls were made is not given here.

System: CCRIS mutagenicity, Ames/micronucleus/aberration tests
Assay: CCRIS mutagenicity studies
Conditions: Test System: AMES SALMONELLA TYPHIMURIUM

Structure (SMILES): Nc1ccc(-c2ccccc2)cc1
- mutagenic call (Strain/Indicator: DJ400, Metabolic Activation: TOBACCO TX1 CELLS, Method: PREINCUBATION): inactive; negative
- mutagenic call (Strain/Indicator: DJ460, Metabolic Activation: TOBACCO TX1 CELLS, Method: PREINCUBATION): active; positive
- mutagenic call (Strain/Indicator: MP110, Metabolic Activation: TOBACCO TX1 CELLS, Method: PREINCUBATION): inactive; negative
- mutagenic call (Strain/Indicator: MP120, Metabolic Activation: TOBACCO TX1 CELLS, Method: PREINCUBATION): inactive; negative
- mutagenic call (Strain/Indicator: MP208, Metabolic Activation: TOBACCO CELL-FREE TXIMX, Method: PREINCUBATION): active; positive
- mutagenic call (Strain/Indicator: MP219, Metabolic Activation: TOBACCO CELL-FREE TXIMX, Method: PREINCUBATION): active; positive
- mutagenic call (Strain/Indicator: TA97, Metabolic Activation: NONE, Method: STANDARD PLATE): inactive; negative
- mutagenic call (Strain/Indicator: TA97, Metabolic Activation: RAT, LIVER, S-9, AROCLOR 1254, Method: STANDARD PLATE): active; positive
- mutagenic call (Strain/Indicator: TA98(1,8-DNP6), Metabolic Activation: PLANT CELLS, Method: PREINCUBATION): active; positive
- mutagenic call (Strain/Indicator: TA98(1,8-DNP6), Metabolic Activation: TOBACCO CELL-FREE TXIMX, Method: PREINCUBATION): inactive; negative
- mutagenic call (Strain/Indicator: TA98(NR), Metabolic Activation: TOBACCO CELL-FREE TXIMX, Method: PREINCUBATION): active; positive
- mutagenic call (Strain/Indicator: TA98, Metabolic Activation: HUMAN, RED BLOOD CELL, CYTOSOL, Method: PREINCUBATION): active; positive
- mutagenic call (Strain/Indicator: TA98, Metabolic Activation: HUMAN, UROEPITHELIAL CELL CYTOSOL, Method: PREINCUBATION): inactive; negative
- mutagenic call (Strain/Indicator: TA98, Metabolic Activation: HUMAN, UROEPITHELIAL CELL, MICROSOMES, Method: PREINCUBATION): inactive; negative
- mutagenic call (Strain/Indicator: TA98, Metabolic Activation: HUMAN, UROEPITHELIAL CELL, S-9, Method: PREINCUBATION): inactive; negative
- mutagenic call (Strain/Indicator: TA98, Metabolic Activation: NONE, Method: PREINCUBATION): inactive; negative
- mutagenic call (Strain/Indicator: TA98, Metabolic Activation: PLANT CELLS, Method: PREINCUBATION): active; positive
- mutagenic call (Strain/Indicator: TA98, Metabolic Activation: RAT LIVER S-9, AROCLOR 1254, Method: PREINCUBATION): active; positive
- mutagenic call (Strain/Indicator: TA98, Metabolic Activation: RAT LIVER S-9, AROCLOR, Method: STANDARD PLATE): active; positive
- mutagenic call (Strain/Indicator: TA98, Metabolic Activation: RAT, BLADDER, S-9, PCB, Method: FLUCTUATION TEST): active; positive
- mutagenic call (Strain/Indicator: TA98, Metabolic Activation: RAT, LIVER, S-9, AROCLOR 1254 (4%), Method: STANDARD PLATE): active; positive
- mutagenic call (Strain/Indicator: TA98, Metabolic Activation: RAT, LIVER, S-9, KC500 OR PHENOBARBITAL, Method: LIQUID SUSPENSION): active; positive
- mutagenic call (Strain/Indicator: TA98, Metabolic Activation: TOBACCO CELL-FREE TXIMX, Method: PREINCUBATION): active; positive
- mutagenic call (Strain/Indicator: TA100 (1,8-DNP), Metabolic Activation: MOUSE LIVER S-9, AROCLOR 1254, 10%, Method: PREINCUBATION): active; positive
- mutagenic call (Strain/Indicator: TA100 (1,8-DNP), Metabolic Activation: RAT LIVER S-9, AROCLOR 1254, 10%, Method: PREINCUBATION): active; positive
- mutagenic call (Strain/Indicator: TA100(NR), Metabolic Activation: TOBACCO CELL-FREE TXIMX, Method: PREINCUBATION): active; positive
- mutagenic call (Strain/Indicator: TA100(TN:OAT), Metabolic Activation: TOBACCO CELL-FREE TXIMX, Method: PREINCUBATION): active; positive
- mutagenic call (Strain/Indicator: TA100, Metabolic Activation: MOUSE LIVER S-9, AROCLOR 1254, 10%, Method: PREINCUBATION): active; positive
- mutagenic call (Strain/Indicator: TA100, Metabolic Activation: NONE, Method: PREINCUBATION): inactive; negative
- mutagenic call (Strain/Indicator: TA100, Metabolic Activation: RAT LIVER S-9, AROCLOR 1254, 10%, Method: PREINCUBATION): active; positive
- mutagenic call (Strain/Indicator: TA100, Metabolic Activation: RAT LIVER S-9, AROCLOR 1254, Method: PREINCUBATION): active; positive
- mutagenic call (Strain/Indicator: TA100, Metabolic Activation: RAT LIVER S-9, AROCLOR, Method: STANDARD PLATE): active; positive
- mutagenic call (Strain/Indicator: TA100, Metabolic Activation: RAT, BLADDER, S-9, PCB, Method: FLUCTUATION TEST): inactive; negative
- mutagenic call (Strain/Indicator: TA100, Metabolic Activation: RAT, LIVER, S-9, KC500 OR PHENOBARBITAL, Method: LIQUID SUSPENSION): active; positive
